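These data come from cells grown in 96-well plates and exposed to compound for 48 hours at five concentrations. GI50 marks 50% less growth.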 Active and inactive are the calls of the source. Rule as the data show it: active = GI50 up to about 1.1 µM and inactive = higher.
Key:
Assay in all cases: NCI anticancer screen, dose series, 48 h
786-0 = system: 786-0
A498 = system: A498
A549 = system: A549
ACHN = system: ACHN
BT-549 = system: BT-549
CAKI-1 = system: CAKI-1
CCRF-CEM = system: CCRF-CEM
COLO 205 = system: COLO 205
DU-145 = system: DU-145
EKVX = system: EKVX
HCC 2998 = system: HCC 2998
HCT-116 = system: HCT-116
HCT-15 = system: HCT-15
HL-60 = system: HL-60
HOP-62 = system: HOP-62
HOP-92 = system: HOP-92
HT-29 = system: HT-29
Hs-578T = system: Hs-578T
IGROV-1 = system: IGROV-1
K562 = system: K562
KM12 = system: KM12
LOX IMVI = system: LOX IMVI
M14 = system: M14
MCF7 = system: MCF7
MDA-MB-231 = system: MDA-MB-231
MDA-MB-435 = system: MDA-MB-435
MDA-N = system: MDA-N
MOLT-4 = system: MOLT-4
Malme-3M = system: Malme-3M
NCI-H226 = system: NCI-H226
NCI-H23 = system: NCI-H23
NCI-H460 = system: NCI-H460
NCI-H522 = system: NCI-H522
NCI/ADR-RES = system: NCI/ADR-RES
OVCAR-3 = system: OVCAR-3
OVCAR-4 = system: OVCAR-4
OVCAR-5 = system: OVCAR-5
OVCAR-8 = system: OVCAR-8
PC-3 = system: PC-3
RPMI-8226 = system: RPMI-8226
RXF 393 = system: RXF 393
SF-268 = system: SF-268
SF-295 = system: SF-295
SF-539 = system: SF-539
SK-MEL-28 = system: SK-MEL-28
SK-MEL-2 = system: SK-MEL-2
SK-MEL-5 = system: SK-MEL-5
SNB-19 = system: SNB-19
SNB-75 = system: SNB-75
SW-620 = system: SW-620
U-251 = system: U-251
UACC-257 = system: UACC-257
UO-31 = system: UO-31
SN12C = system: SN12C
SR = system: SR
TK-10 = system: TK-10
UACC-62 = system: UACC-62
SK-OV-3 = system: SK-OV-3

Measured: GI50

O=c1[nH]c2c(c(=O)[nH]1)SC(c1ccccc1)C2 (centres undefined)
inactive: 786-0 > 100 µM | A498 > 100 µM | A549 > 100 µM | ACHN > 100 µM | BT-549 > 100 µM | CAKI-1 > 100 µM | CCRF-CEM > 100 µM | COLO 205 > 100 µM | DU-145 > 100 µM | EKVX 72.1 µM | HCC 2998 > 100 µM | HCT-116 > 100 µM | HL-60 > 100 µM | HOP-62 > 100 µM | HOP-92 > 100 µM | HT-29 > 100 µM | Hs-578T > 100 µM | IGROV-1 > 100 µM | K562 > 100 µM | KM12 > 100 µM | LOX IMVI > 100 µM | M14 > 100 µM | MCF7 94 µM | MDA-MB-231 > 100 µM | MDA-MB-435 > 100 µM | MDA-N > 100 µM | MOLT-4 > 100 µM | Malme-3M > 100 µM | NCI-H226 > 100 µM | NCI-H23 > 100 µM | NCI-H460 > 100 µM | NCI-H522 > 100 µM | NCI/ADR-RES > 100 µM | OVCAR-3 > 100 µM | OVCAR-4 > 100 µM | OVCAR-5 > 100 µM | OVCAR-8 > 100 µM | PC-3 > 100 µM | RPMI-8226 > 100 µM | RXF 393 > 100 µM | SF-268 > 100 µM | SF-295 > 100 µM | SF-539 > 100 µM | SK-MEL-28 > 100 µM | SK-MEL-2 93.8 µM | SK-MEL-5 > 100 µM | SNB-19 > 100 µM | SNB-75 86.9 µM | SW-620 > 100 µM | U-251 > 100 µM | UACC-257 > 100 µM | UO-31 > 100 µM
> 100 µM: HCT-15

COc1cc(CNc2nc3cc(N)cc(N)c3nc2-c2ccccc2)cc(OC)c1
inactive: RPMI-8226 2.2 µM | UACC-257 26.1 µM

CCOC(=O)CCC(NC(=O)Cc1ccc(Oc2nc3ccccc3nc2-c2cccs2)cc1)C(=O)OCC (centres undefined)
inactive: 786-0 2.49 µM | A498 19.4 µM | A549 7.19 µM | ACHN 2.44 µM | BT-549 29.7 µM | CAKI-1 39.3 µM | CCRF-CEM > 100 µM | COLO 205 > 100 µM | DU-145 7.45 µM | EKVX 26.1 µM | HCC 2998 32.2 µM | HCT-116 6.15 µM | HL-60 > 100 µM | HOP-62 1.73 µM | HOP-92 14 µM | HT-29 > 100 µM | Hs-578T 13.6 µM | IGROV-1 47.5 µM | K562 > 100 µM | KM12 > 100 µM | LOX IMVI 20.7 µM | M14 > 100 µM | MCF7 > 100 µM | MDA-MB-231 4.08 µM | MDA-MB-435 88.7 µM | MOLT-4 > 100 µM | Malme-3M 22.7 µM | NCI-H226 16.6 µM | NCI-H23 61.9 µM | NCI-H460 34.4 µM | NCI-H522 52 µM | NCI/ADR-RES 4.95 µM | OVCAR-3 4.07 µM | OVCAR-4 13.5 µM | OVCAR-5 8.97 µM | OVCAR-8 1.82 µM | PC-3 80.2 µM | RPMI-8226 > 100 µM | RXF 393 2.3 µM | SF-268 1.64 µM | SF-295 40.9 µM | SF-539 5.14 µM | SK-MEL-28 > 100 µM | SK-MEL-2 56.5 µM | SK-MEL-5 > 100 µM | SN12C 8.89 µM | SNB-19 9.29 µM | SR > 100 µM | SW-620 > 100 µM | TK-10 19.2 µM | U-251 11.4 µM | UACC-257 > 100 µM | UACC-62 38.4 µM | UO-31 22.6 µM
> 100 µM: HCT-15

C#CCn1c(=O)c(I)cn(/C(=C\C(=O)OCC)C(=O)OCC)c1=O
inactive: A498 16.7 µM | A549 34.8 µM | DU-145 17.5 µM | HOP-62 17.4 µM | Hs-578T 49.8 µM | KM12 17.3 µM | MDA-MB-435 17.1 µM | NCI-H226 17.9 µM | NCI-H460 20.3 µM | NCI/ADR-RES 26.1 µM | OVCAR-5 20.6 µM | SF-295 18.7 µM | SF-539 18.4 µM | SK-MEL-2 18.9 µM | SK-OV-3 17.9 µM | SNB-19 26.9 µM | SNB-75 17.1 µM | U-251 15.7 µM | UACC-62 16.9 µM

NC(N)=NCCC(O)(P(=O)(O)O)P(=O)(O)O
inactive: 786-0 46.9 µM | A549 > 100 µM | ACHN > 100 µM | BT-549 > 100 µM | CAKI-1 > 100 µM | COLO 205 > 100 µM | DU-145 > 100 µM | EKVX > 100 µM | HCC 2998 > 100 µM | HCT-116 > 100 µM | HOP-62 > 100 µM | Hs-578T 15 µM | IGROV-1 > 100 µM | KM12 > 100 µM | LOX IMVI > 100 µM | M14 > 100 µM | MCF7 > 100 µM | MDA-MB-231 > 100 µM | MDA-N > 100 µM | Malme-3M > 100 µM | NCI-H226 > 100 µM | NCI-H23 > 100 µM | NCI-H460 > 100 µM | NCI-H522 > 100 µM | NCI/ADR-RES > 100 µM | OVCAR-3 > 100 µM | OVCAR-5 > 100 µM | PC-3 > 100 µM | RXF 393 > 100 µM | SF-268 > 100 µM | SF-295 > 100 µM | SF-539 > 100 µM | SK-MEL-5 > 100 µM | SK-OV-3 > 100 µM | SNB-19 > 100 µM | TK-10 > 100 µM | UACC-257 > 100 µM | UACC-62 > 100 µM | UO-31 > 100 µM
> 100 µM: HCT-15

From ChEMBL document CHEMBL1201862, “PubChem BioAssay data set” (2004)
